Experimental data published in PMC11631053, “A receptor-based assay to study the sweet and bitter tastes of sweeteners and binary sweet blends: the SWEET project” (Chemical Senses, 2024).
pEC50: −log10 of the molar value. Where “and” joins values, the source holds several entries; their conditions need not be identical. Identical values can stand only once.

Experiments:
25 human TAS2Rs = experiment: Screen of the 25 human TAS2Rs, calcium mobilization in HEK293T-Gα16gust44 cells; assay type: cell-based; conditions: for number of TAS2Rs activated: of the 25 human TAS2Rs; for activation of any TAS2Rs: at the maximal tested concentration (Table 4)
Method: The activation of the 25 human TAS2Rs by the 9 selected sweeteners (excluding sucrose) was examined by using HEK293T-Gα16gust44 cells. Cellular responses were measured after cell stimulation with various concentrations of the sweeteners.

TAS2R1 = biological target: T1, TAS2R1 (Homo sapiens, UniProt Q9NYW7); experiment: Calcium mobilization assay, HEK293T-Gα16gust44 cells expressing TAS2R1; conditions: for Response of TAS2R1: maximal concentration tested: sucralose 100 mM, neotame 30 µM, Ace-K 300 mM, RebA 4 mM, RebM 4 mM, mogroside V 5 mM, erythritol 200 mM, D-allulose 500 mM, thaumatin 100 mM
T1 sequence (Q9NYW7 1-299): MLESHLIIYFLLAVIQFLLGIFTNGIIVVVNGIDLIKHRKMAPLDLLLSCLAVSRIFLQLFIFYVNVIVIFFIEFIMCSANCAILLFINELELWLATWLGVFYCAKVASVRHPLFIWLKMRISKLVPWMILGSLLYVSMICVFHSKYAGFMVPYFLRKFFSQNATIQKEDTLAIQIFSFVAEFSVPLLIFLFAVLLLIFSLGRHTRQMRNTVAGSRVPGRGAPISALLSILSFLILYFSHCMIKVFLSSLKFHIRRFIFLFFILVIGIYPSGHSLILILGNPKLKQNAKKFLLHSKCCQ
Method: (§1) Different concentration ranges were tested depending on the injected sweet compound. […] All of the concentration-receptor combinations were measured in triplicate, and each experiment was repeated at least 3 times. The Ca^2+ change was expressed as a fractional change in fluorescent light intensity: ΔF/F = (F − F0)/F0, where F was the fluorescent light intensity at each point, and F0 was the value of fluorescent light emitted prior to stimulus application. To calculate dose–response relationships, the changes in fluorescence upon stimulus application were averaged, mock-subtracted and baseline-corrected. The resulting obtained dose–response data were adjusted by using a 4-parameter logistic equation.

TAS2R41 = biological target: T2, TAS2R41 (Homo sapiens, UniProt P59536); experiment: Calcium mobilization assay, HEK293T-Gα16gust44 cells expressing TAS2R41; conditions: maximal concentration tested: sucralose 100 mM, neotame 30 µM, Ace-K 300 mM, RebA 4 mM, RebM 4 mM, mogroside V 5 mM, erythritol 200 mM, D-allulose 500 mM, thaumatin 100 mM
T2 sequence (P59536 1-307): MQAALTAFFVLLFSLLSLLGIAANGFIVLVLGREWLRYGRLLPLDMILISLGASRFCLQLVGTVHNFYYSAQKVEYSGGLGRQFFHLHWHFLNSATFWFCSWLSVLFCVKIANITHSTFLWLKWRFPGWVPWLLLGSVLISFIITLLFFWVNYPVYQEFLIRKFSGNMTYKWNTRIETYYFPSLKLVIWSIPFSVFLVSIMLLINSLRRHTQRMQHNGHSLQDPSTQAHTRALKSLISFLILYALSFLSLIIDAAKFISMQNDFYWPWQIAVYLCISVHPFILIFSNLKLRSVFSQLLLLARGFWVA
Method: (§2) Different concentration ranges were tested depending on the injected sweet compound. […] All of the concentration-receptor combinations were measured in triplicate, and each experiment was repeated at least 3 times. The Ca^2+ change was expressed as a fractional change in fluorescent light intensity: ΔF/F = (F − F0)/F0, where F was the fluorescent light intensity at each point, and F0 was the value of fluorescent light emitted prior to stimulus application. To calculate dose–response relationships, the changes in fluorescence upon stimulus application were averaged, mock-subtracted and baseline-corrected. The resulting obtained dose–response data were adjusted by using a 4-parameter logistic equation. The half-maximal effective concentration (EC50) was calculated by using SigmaPlot software (Systat Software, San Jose, CA, USA) as described in supplemental Supplementary Figs. S1, S2, and S3.

TAS2R46 = biological target: T3, TAS2R46 (Homo sapiens, UniProt P59540); experiment: Calcium mobilization assay, HEK293T-Gα16gust44 cells expressing TAS2R46; conditions: for Response of TAS2R46: maximal concentration tested: sucralose 100 mM, neotame 30 µM, Ace-K 300 mM, RebA 4 mM, RebM 4 mM, mogroside V 5 mM, erythritol 200 mM, D-allulose 500 mM, thaumatin 100 mM
T3 sequence (P59540 1-309): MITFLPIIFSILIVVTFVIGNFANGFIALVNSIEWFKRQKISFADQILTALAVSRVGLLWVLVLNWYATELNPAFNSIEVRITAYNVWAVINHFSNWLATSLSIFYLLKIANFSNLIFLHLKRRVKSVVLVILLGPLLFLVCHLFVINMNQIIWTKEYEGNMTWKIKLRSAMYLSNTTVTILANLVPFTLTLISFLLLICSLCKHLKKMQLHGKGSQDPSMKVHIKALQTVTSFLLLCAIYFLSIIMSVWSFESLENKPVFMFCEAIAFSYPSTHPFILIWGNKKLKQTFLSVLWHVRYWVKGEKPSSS
Method: as §1

TAS2R60 = biological target: T4, TAS2R60 (Homo sapiens, UniProt P59551); experiment: Calcium mobilization assay, HEK293T-Gα16gust44 cells expressing TAS2R60; conditions: maximal concentration tested: sucralose 100 mM, neotame 30 µM, Ace-K 300 mM, RebA 4 mM, RebM 4 mM, mogroside V 5 mM, erythritol 200 mM, D-allulose 500 mM, thaumatin 100 mM
T4 sequence (P59551 1-318): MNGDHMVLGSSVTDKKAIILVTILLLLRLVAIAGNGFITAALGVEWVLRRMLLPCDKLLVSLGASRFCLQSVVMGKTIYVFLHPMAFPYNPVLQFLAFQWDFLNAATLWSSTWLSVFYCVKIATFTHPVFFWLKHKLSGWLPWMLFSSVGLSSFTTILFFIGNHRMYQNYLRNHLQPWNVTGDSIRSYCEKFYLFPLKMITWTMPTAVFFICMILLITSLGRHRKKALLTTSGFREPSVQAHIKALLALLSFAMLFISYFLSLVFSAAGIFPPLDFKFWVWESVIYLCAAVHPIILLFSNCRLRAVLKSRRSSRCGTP
Method: as §2

O=C(CO)[C@H](O)[C@H](O)[C@H](O)CO [D-allulose]
number of TAS2Rs activated (25 human TAS2Rs): 7
Response of TAS2R1 (TAS2R1): −
Response of TAS2R41 (TAS2R41): −
Response of TAS2R46 (TAS2R46): −
Response of TAS2R60 (TAS2R60): −

C=C1C[C@@]23CC[C@H]4[C@@](C)(CCC[C@@]4(C)C(=O)O[C@@H]4O[C@H](CO)[C@@H](O)[C@H](O[C@@H]5O[C@H](CO)[C@@H](O)[C@H](O)[C@H]5O)[C@H]4O[C@@H]4O[C@H](CO)[C@@H](O)[C@H](O)[C@H]4O)[C@@H]2CC[C@]1(O[C@@H]1O[C@H](CO)[C@@H](O)[C@H](O[C@@H]2O[C@H](CO)[C@@H](O)[C@H](O)[C@H]2O)[C@H]1O[C@@H]1O[C@H](CO)[C@@H](O)[C@H](O)[C@H]1O)C3 [RebM, Rebaudioside M]
activation of any TAS2Rs (25 human TAS2Rs): Neither neotame, RebM, erythritol, or thaumatin activated any TAS2Rs
Response of TAS2R1 (TAS2R1): −
Response of TAS2R41 (TAS2R41): −
Response of TAS2R46 (TAS2R46): −
Response of TAS2R60 (TAS2R60): −

OC[C@@H](O)[C@@H](O)CO [Erythritol, erythritol]
activation of any TAS2Rs (25 human TAS2Rs): Neither neotame, RebM, erythritol, or thaumatin activated any TAS2Rs
Response of TAS2R1 (TAS2R1): −
Response of TAS2R41 (TAS2R41): −
Response of TAS2R46 (TAS2R46): −
Response of TAS2R60 (TAS2R60): −

CC1=CC(=O)NS(=O)(=O)O1 [Ace-K, acesulfame-K]
Response of TAS2R1 (TAS2R1): −
Response of TAS2R41 (TAS2R41): −
Response of TAS2R46 (TAS2R46): −
Response of TAS2R60 (TAS2R60): −

thaumatin
activation of any TAS2Rs (25 human TAS2Rs): Neither neotame, RebM, erythritol, or thaumatin activated any TAS2Rs
Response of TAS2R1 (TAS2R1): −
Response of TAS2R41 (TAS2R41): −
Response of TAS2R46 (TAS2R46): −
Response of TAS2R60 (TAS2R60): −

COC(=O)[C@H](Cc1ccccc1)NC(=O)[C@H](CC(=O)O)NCCC(C)(C)C [Neotame]
activation of any TAS2Rs (25 human TAS2Rs): Neither neotame, RebM, erythritol, or thaumatin activated any TAS2Rs
Response of TAS2R1 (TAS2R1): −
Response of TAS2R41 (TAS2R41): −
Response of TAS2R46 (TAS2R46): −
Response of TAS2R60 (TAS2R60): −

C[C@H](CC[C@@H](O[C@@H]1O[C@H](CO[C@@H]2O[C@H](CO)[C@@H](O)[C@H](O)[C@H]2O)[C@@H](O)[C@H](O)[C@H]1O[C@@H]1O[C@H](CO)[C@@H](O)[C@H](O)[C@H]1O)C(C)(C)O)[C@H]1CC[C@@]2(C)[C@@H]3CC=C4[C@@H](CC[C@H](O[C@@H]5O[C@H](CO[C@@H]6O[C@H](CO)[C@@H](O)[C@H](O)[C@H]6O)[C@@H](O)[C@H](O)[C@H]5O)C4(C)C)[C@]3(C)[C@H](O)C[C@]12C [Mogroside V, mogroside V]
number of TAS2Rs activated (25 human TAS2Rs): 2
Response of TAS2R1 (TAS2R1): −
Response of TAS2R41 (TAS2R41): −
Response of TAS2R46 (TAS2R46): −
Response of TAS2R60 (TAS2R60): −

OC[C@H]1O[C@H](O[C@]2(CCl)O[C@H](CCl)[C@@H](O)[C@@H]2O)[C@H](O)[C@@H](O)[C@H]1Cl [Sucralose, sucralose]
number of TAS2Rs activated (25 human TAS2Rs): 3
pEC50 (TAS2R1; TAS2R1 EC50): < 1.00
Response of TAS2R1 (TAS2R1): #^a
Response of TAS2R41 (TAS2R41): −
pEC50 (TAS2R46; TAS2R46 EC50): 2.52 and ≤ 2.52
Response of TAS2R46 (TAS2R46): #^a
Response of TAS2R60 (TAS2R60): −
